Results as given in PMC10833116 (Journal of Enzyme Inhibition and Medicinal Chemistry, 2024).

System: adult female Wistar rats
Test: Gastric ulcerogenic activity
Format: in vivo, rat
Details: fasted rats

Compound | Gastric ulcerogenic potential, gross examination
Cc1ccc(C(C)C)c(O)c1C=NN=c1scc(-c2ccccc2)n1-c1ccccc1 [Compound 6a, 2-((2-Hydroxy-3-isopropyl-6-methylbenzylidene)hydrazono)-3,4-diphenyl-2,3-dihydrothiazole] | no ulceration
Cc1ccc(-c2cc(C(F)(F)F)nn2-c2ccc(S(N)(=O)=O)cc2)cc1 [Celecoxib, celecoxib, reference compound] | no ulceration
Cc1ccc(C(C)C)c(O)c1C=NN=c1scc(-c2ccccc2)n1-c1ccccc1Cl [Compound 6b, 2-((2-Hydroxy-3-isopropyl-6-methylbenzylidene)hydrazono)-3-(2-chlorophenyl)-4-phenyl-2,3-dihydrothiazole] | no ulceration
Cc1ccc(C(C)C)c(O)c1C=NN=c1scc(-c2ccc(Br)cc2)n1-c1ccccc1Cl [Compound 6f, 2-((2-Hydroxy-3-isopropyl-6-methylbenzylidene)hydrazono)-3-(2-chlorophenyl)-4-(4-bromophenyl)-2,3-dihydrothiazole] | no ulceration
O=C(O)Cc1ccccc1Nc1c(Cl)cccc1Cl [Diclofenac sodium, diclofenac sodium, reference compound] | no ulceration
